According to patent US9914730B2, “Azaquinazoline inhibitors of Atypical protein Kinase C” (Ignyta, Inc., priority 2012, dated 2018):

Molecular target: T1, full-length human PKCι (Homo sapiens, UniProt P41743)
T1 construct: Recombinant, full-length human PKCι expressed in Sf21 insect cells is also commercially available; purchased; host or cells: Sf21 insect cells
T1 sequence (P41743 1-596): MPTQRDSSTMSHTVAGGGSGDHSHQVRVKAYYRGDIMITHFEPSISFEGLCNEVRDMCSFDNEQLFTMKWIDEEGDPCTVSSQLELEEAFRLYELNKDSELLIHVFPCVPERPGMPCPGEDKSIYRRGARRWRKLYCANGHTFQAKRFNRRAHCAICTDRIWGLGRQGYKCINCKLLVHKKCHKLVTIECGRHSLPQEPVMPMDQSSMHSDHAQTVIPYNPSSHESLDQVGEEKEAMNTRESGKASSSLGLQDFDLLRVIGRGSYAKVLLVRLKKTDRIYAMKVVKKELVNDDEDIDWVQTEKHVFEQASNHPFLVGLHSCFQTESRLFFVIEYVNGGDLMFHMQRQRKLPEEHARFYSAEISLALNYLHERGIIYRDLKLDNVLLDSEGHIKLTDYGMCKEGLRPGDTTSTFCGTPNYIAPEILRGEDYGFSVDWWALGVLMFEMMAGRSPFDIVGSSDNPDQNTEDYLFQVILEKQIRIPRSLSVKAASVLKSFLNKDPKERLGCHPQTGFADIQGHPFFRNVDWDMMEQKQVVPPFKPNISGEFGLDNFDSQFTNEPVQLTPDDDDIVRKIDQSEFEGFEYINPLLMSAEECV
Test: PKCι IC50 IMAP assay, full-length PKCι at 150 μM ATP
Format: biochemical
Conditions: read-out: IC50 in IMAP assay against full length PKCi at 150 μM ATP
Outline: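 Recombinant full-length human PKCι (Sf21-expressed, typically 15 pM) phosphorylated 100 nM 5FAM-labelled PKCε pseudosubstrate-derived peptide with 150 μM ATP (5× KM^APP) in 18 mM tris-HCl pH7.5, 9 mM MgCl2, EGTA, DTT, 4% DMSO. After 60 min at room temperature, IMAP binding reagent was added for 2 h and fluorescence polarisation read.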

Row | SMILES | IC50 [nM]
1 | FC(F)(F)c1cnnc(Nc2cc(-c3nc(N4CCNCC4)c4c(C5CC5)cncc4n3)ccn2)c1 [Example 565, [4-(5-Cyclopropyl-4-piperazin-1-yl-pyrido[3,4-d]pyrimidin-2-yl)-pyridin-2-yl]-(5-trifluoromethyl-pyridazin-3-yl)-amine] | < 100
2 | CNc1cc(-c2nc(N3CCNCC3)c3c(OC)cncc3n2)ccn1 [Example 213, [4-(5-Methoxy-4-piperazin-1-yl-pyrido[3,4-d]pyrimidin-2-yl)-pyridin-2-yl]-methyl-amine] | 100 to 1000
3 | c1cc(-c2nc(N3CCNCC3)c3c(C4CC4)cncc3n2)c2c(n1)NC1(CCCCC1)C2 [Example 1252, 4-(5-cyclopropyl-4-piperazin-1-yl-pyrido[3,4-d]pyrimidin-2-yl)spiro[1,3-dihydropyrrolo[2,3-b]pyridine-2,1′-cyclohexane]] | < 100
4 | Fc1cc(F)c(Nc2cc(-c3nc(NC4CCNCC4)c4c(C5CC5)cncc4n3)ccn2)nc1F [Example 2065, {5-Cyclopropyl-2-[2-(3,5,6-trifluoro-pyridin-2-ylamino)-pyridin-4-yl]-pyrido[3,4-d]pyrimidin-4-yl}-piperidin-4-yl-amine] | < 100
5 | COc1cncc2nc(-c3ccncc3)nc(N3CCNC(C(=O)NCCc4ccccc4)C3)c12 (stereo not drawn) [Example 158, 4-(5-Methoxy-2-pyridin-4-yl-pyrido[3,4-d]pyrimidin-4-yl)-piperazine-2-carboxylic acid phenethyl-amide] | 1000 to 10000
6 | O[C@@H]1CCN(c2nc(-c3ccnc4[nH]c(C(F)(F)F)cc34)nc3cncc(C4CC4)c23)C[C@H]1O (racemic) [Example 1235, (+/−)-(trans)-1-[5-Cyclopropyl-2-(2-trifluoromethyl-1H-pyrrolo[2,3-b]pyridin-4-yl)-pyrido[3,4-d]pyrimidin-4-yl]-piperidine-3,4-diol] | 100 to 1000
7 | CN(c1nc(-c2ccnc3[nH]c(C(F)(F)F)cc23)nc2cncc(C3CC3)c12)C1CCNCC1 [Example 2070, [5-Cyclopropyl-2-(2-trifluoromethyl-1H-pyrrolo[2,3-b]pyridin-4-yl)-pyrido[3,4-d]pyrimidin-4-yl]-methyl-piperidin-4-yl-amine] | < 100
8 | Fc1cccc(Nc2cc(-c3nc(N4CCN[C@@H](C5CC5)C4)c4c(C5CC5)cncc4n3)ccn2)n1 [Example 277, {4-[5-Cyclopropyl-4-((S)-3-cyclopropyl-piperazin-1-yl)-pyrido[3,4-d]pyrimidin-2-yl]-pyridin-2-yl}-(6-fluoro-pyridin-2-yl)-amine] | < 100
9 | Cc1ccc(-c2nccc3c(NC[C@@H](N)Cc4ccccc4)nc(-c4ccncc4)nc23)s1 [Example 111, N-[(2S)-2-amino-3-phenylpropyl]-8-(5-methyl-thiophen-2-yl)-2-(pyridin-4-yl)pyrido[3,4-d]pyrimidin-4-amine] | 100 to 1000
10 | Fc1nc(N2CCOCC2)ccc1Nc1cc(-c2nc(N3CCNCC3)c3c(C4CC4)cncc3n2)ccn1 [Example 731, [4-(5-Cyclopropyl-4-piperazin-1-yl-pyrido[3,4-d]pyrimidin-2-yl)-pyridin-2-yl]-(2-fluoro-6-morpholin-4-yl-pyridin-3-yl)-amine] | < 100
11 | N#Cc1ccnc2c1ccn2-c1cc(-c2nc(N[C@@H]3CCNC3)c3ccncc3n2)ccn1 [Example 328, 1-{4-[4-((R)-Pyrrolidin-3-ylamino)-pyrido[3,4-d]pyrimidin-2-yl]-pyridin-2-yl}-1H-pyrrolo[2,3-b]pyridine-4-carbonitrile] | 1000 to 10000
12 | CN1CCN(c2cccc(Nc3cc(-c4nc(N5CCC(O)C(O)C5)c5c(C6CC6)cncc5n4)ccn3)c2)CC1 (single isomer, unassigned) [Example 754, (3S,4S or 3R,4R)-1-(5-Cyclopropyl-2-{2-[3-(4-methyl-piperazin-1-yl)-phenylamino]-pyridin-4-yl}-pyrido[3,4-d]pyrimidin-4-yl)-piperidine-3,4-diol] | < 100
13 | N#Cc1ccnc(Nc2cc(-c3nc(N4CCN[C@@H](CF)C4)c4c(C5CC5)cncc4n3)ccn2)c1 [Example 530, 2-{4-[5-Cyclopropyl-4-((R)-3-fluoromethyl-piperazin-1-yl)-pyrido[3,4-d]-pyrimidin-2-yl]-pyridin-2-ylamino}-iso-nicotinonitrile] | < 100
14 | COc1cncc2nc(N3CCOCC3)nc(N3CCN[C@@H](COc4ccc(F)cc4)C3)c12 [Example 1010, 4-[(R)-3-(4-Fluoro-phenoxymethyl)-piperazin-1-yl]-5-methoxy-2-morpholin-4-yl-pyrido[3,4-d]pyrimidine] | 100 to 1000
15 | Clc1ncc(C2CC2)c2c(N3CCNCC3)nc(-c3ccnc4[nH]ccc34)nc12 [Example 1210, 8-Chloro-5-cyclopropyl-4-piperazin-1-yl-2-(1H-pyrrolo[2,3-b]pyridin-4-yl)-pyrido[3,4-d]pyrimidine] | < 100
16 | COCc1cc2c(-c3nc(N4CCNCC4)c4c(C5CCC5)cncc4n3)ccnc2[nH]1 [Example 2080, 5-Cyclobutyl-2-(2-methoxymethyl-1H-pyrrolo[2,3-b]pyridin-4-yl)-4-piperazin-1-yl-pyrido[3,4-d]pyrimidine] | < 100
17 | Fc1cnc(Nc2cc(-c3nc(N4CCNCC4)c4c(C5CC5)cnc(C5CC5)c4n3)ccn2)c(F)c1 [Example 2188, [4-(5,8-Dicyclopropyl-4-piperazin-1-yl-pyrido[3,4-d]pyrimidin-2-yl)-pyridin-2-yl]-(3,5-difluoro-pyridin-2-yl)-amine] | 100 to 1000
18 | c1cc(-c2nc(N3CCNCC3)c3c(C4CCC4)cncc3n2)c2cc(C3CCCO3)[nH]c2n1 (stereo not drawn) [Example 2185, 5-Cyclobutyl-4-piperazin-1-yl-2-[2-(tetrahydro-furan-2-yl)-1H-pyrrolo[2,3-b]pyridin-4-yl]-pyrido[3,4-d]pyrimidine] | < 100
19 | CC(=O)Nc1cc(-c2nc(N3CCN[C@@H](COCc4ccccc4)C3)c3c(C4CC4)cncc3n2)ccn1 [Example 768, N-{4-[4-((R)-3-Benzyloxymethyl-piperazin-1-yl)-5-cyclopropyl-pyrido[3,4-d]pyrimidin-2-yl]-pyridin-2-yl}-acetamide] | < 100
20 | c1cc(-c2nc(N3CCNCC3)c3c(C4CC4)cncc3n2)ccn1 [Example 139, 1-[5-cyclopropyl-2-(pyridin-4-yl)pyrido[3,4-d]pyrimidin-4-yl]piperazine] | < 100
21 | CCCCc1cncc2nc(-c3ccncc3)nc(N3CCNCC3)c12 [Example 135, 5-Butyl-4-piperazin-1-yl-2-pyridin-4-yl-pyrido[3,4-d]pyrimidine] | < 100
22 | CS(=O)(=O)N1CCC(Nc2cc(-c3nc(N4CCNCC4)c4c(C5CC5)cncc4n3)ccn2)CC1 [Example 816, [4-(5-Cyclopropyl-4-piperazin-1-yl-pyrido[3,4-d]pyrimidin-2-yl)-pyridin-2-yl]-(1-methanesulfonyl-piperidin-4-yl)-amine] | < 100
23 | N#Cc1ccnc(Nc2cc(-c3nc(N4CCNCC4)c4ccncc4n3)ccn2)c1 [Example 342, 2-[4-(4-piperazin-1-yl-pyrido[3,4-d]pyrimidin-2-yl)-pyridin-2-ylamino]-isonicotinonitrile] | 100 to 1000
24 | Fc1cnc2[nH]c(C(F)(F)F)cc2c1-c1nc(N2CCNCC2)c2c(C3CC3)cncc2n1 [Example 1232, 5-Cyclopropyl-2-(5-fluoro-2-trifluoromethyl-1H-pyrrolo[2,3-b]pyridin-4-yl)-4-piperazin-1-yl-pyrido[3,4-d]pyrimidine] | < 100
25 | Fc1cccc(F)c1Nc1cc(-c2nc(N3CCNCC3)c3c(Cl)cncc3n2)ccn1 [Example 254, [4-(5-Chloro-4-piperazin-1-yl-pyrido[3,4-d]pyrimidin-2-yl)-pyridin-2-yl]-(2,6-difluoro-phenyl)-amine] | < 100
26 | Fc1cc(F)c(F)c(Nc2cc(-c3nc(N4CCNCC4)c4c(C5CC5)cncc4n3)ccn2)n1 [Example 774, [4-(5-Cyclopropyl-4-piperazin-1-yl-pyrido[3,4-d]pyrimidin-2-yl)-pyridin-2-yl]-(3,4,6-trifluoro-pyridin-2-yl)-amine] | < 100
27 | c1ccc(C2(c3cc4c(-c5nc(N6CCNCC6)c6c(C7CCC7)cncc6n5)ccnc4[nH]3)CC2)cc1 [Example 2113, 5-Cyclobutyl-2-[2-(1-phenyl-cyclopropyl)-1H-pyrrolo[2,3-b]pyridin-4-yl]-4-piperazin-1-yl-pyrido[3,4-d]pyrimidine] | < 100
28 | c1cc(-c2nc(N3CCNCC3)c3ccncc3n2)ccn1 [Example 1, 1-[2-(pyridin-4-yl)pyrido[3,4-d]pyrimidin-4-yl]piperazine] | 100 to 1000
29 | COc1cncc2nc(-c3ccnc(Nc4ccccc4)c3)nc(N3CC[C@@H](O)[C@@H](O)CC3)c12 [Example 467, (meso)-cis-1-[5-Methoxy-2-(2-phenylamino-pyridin-4-yl)-pyrido[3,4-d]pyrimidin-4-yl]-azepane-4,5-diol] | 1000 to 10000
30 | COc1cncc2nc(-c3ccnc(Nc4nccs4)c3)nc(N3CCNCC3)c12 [Example 219, [4-(5-Methoxy-4-piperazin-1-yl-pyrido[3,4-d]pyrimidin-2-yl)-pyridin-2-yl]-thiazol-2-yl-amine] | 100 to 1000
